{"source": "patent US20230117328A1", "about": "“METHODS TO TREAT CANCER USING (R)-N-(3-FLUORO-4-((3-((1-HYDROXYPROPAN-2-YL)AMINO)-1H-PYRAZOLO[3,4-B]PYRIDIN-4-YL)OXY)PHENYL)-3-(4-FLUOROPHENYL)-1-ISOPROPYL-2,4-DIOXO-1,2,3,4-TETRAHYDROPYRIMIDINE-5-CARBOXAMIDE” (Array BioPharma Inc., priority 2020, published 2023)", "key": {"[1]": {"system": "MC-38 colon adenocarcinoma tumors", "test": "Antitumor efficacy in syngeneic MC-38 colon adenocarcinoma tumor-bearing mice", "type": "in vivo, C57BL/6 mice", "conditions": "MC-38 tumor-bearing mice; for Median Survival (days): not reached = more than 50% of animals alive at end of study (Day 66), 50 mg/kg", "method": "Female C57BL/6 bearing syngeneic MC-38 colon adenocarcinoma tumors (n=8/group, implanted on Day 0) were administered test articles Compound 1 or anti-PD-1, as monotherapy or in combination, starting on Day 10. As monotherapy, anti-PD-1 was administered twice weekly (BIW) for 2 consecutive weeks by intraperitoneal (IP) injection at 200 μg/mouse (Days 10, 13, 17, and 20). As monotherapy, Compound 1 was administered twice daily (BID) at 50 mg/kg by oral gavage (PO) for 28 consecutive days (Days 10-37). As combination therapy with anti-PD-1 (administered at the dose and schedule indicated above), Compound 1 was administered BID at 50 mg/kg PO for 1) 7 consecutive days (Days 10-16); 2) 14 consecutive days (Days 10-23); 3) 21 consecutive days (Days 10-30); 4) 28 consecutive days (Days 10-37); or, 5) 7 consecutive days on the first and third week of dosing (Days 10-16 and Days 24-30). This set of cohorts was used to determine both the tolerability and efficacy of Compound 1 treatment across dosing schedules, as well as ocular toxicity upon recovery on Day 66.\nFor initial tumor outgrowth, a suspension of 1×10^6 MC-38 cells in a volume of 100 μL PBS was implanted subcutaneously on the right flank of the animal near the axillary region. Animals were then randomly assigned to treatment groups. Treatment was initiated on day 10 after MC-38 tumor cell inoculation to allow for a sufficient treatment window (Table 1).\nAnti-PD-1 was administered twice weekly (BIW) for 2 consecutive weeks by intraperitoneal (IP) injection at 200 μg/mouse. Compound 1 was administered twice daily (BID) for 28 consecutive days by oral gavage (PO) at 50 mg/kg in 10 mL/kg dose volume (with or without anti-PD-1 administered on the above indicated dose and schedule). Alternatively, Compound 1 was administered BID for 7, 14 or 21 consecutive days, or on Days 10-16 and Days 24-30 in combination with anti-PD-1. Concomitantly, a set of satellite cohorts comprising tumor-naïve mice was treated with the same schedules and doses as indicated above.\nAnimals were monitored for tumor growth and body weight 2-3 times per week based on outgrowth kinetics. Tumor diameter was measured with digital calipers, and the tumor volume in mm^3 was calculated by the formula: Volume=((width)^2×length)/2. Animals were removed from study if found moribund or if tumor volume exceeded 1500 mm^3. […] Food, water, temperature and humidity were according to Pharmacology Testing Facility performance standards (SOPs) which are in accordance with the 1996 Guide for the Care and Use of Laboratory Animals (NRC) and AAALAC-International.\nThe murine MC-38 colon adenocarcinoma cell line was developed in C57BL/6 mice upon subcutaneous injection of dimethylhydrazine (Corbett, T. H., Griswold, D. P., et al. (1975), Cancer Research 35, 2434-2439). Extensive immunogenomic, transcriptomic, and therapeutic background are available on this cell line (Yadav, M., Jhunjhunwala, S., et al. (2014) Nature, 515, 572-576; and Efremova, M., Rieder, D., et al. (2018) Nat. Commun. 9, 32). The MC-38 cell line is reported to harbor driver mutations in TP53, PTEN, SMAD2, SMAD4, ACVR2A, TGFB2, BRAF, AXIN, SOX9, and ARID1A. Furthermore, mutations in the MMR gene MSH3 indicate that this cell line is a model of human MSI/hypermutated colorectal cancer. Whole exome sequencing has also identified 1290 transcript coding variations (compared to the reference C57BL/6 genome), among which 170 were predicted to be MHC Class I-presented neo-epitopes.\nMC-38 (National Cancer Institute-Frederick Tumor Repository, Frederick, Md.) cells were grown in a humidified atmosphere of 5% CO2 using DMEM growth media (Gibco Life Technologies, 11965-092) supplemented with 10% fetal bovine serum (HyClone SH30071.03, Logan, Utah) and 100 U/mL penicillin, 100 μg/mL streptomycin (Gibco Life Technologies, 15140-122). Cells were confirmed murine virus and mycoplasma negative (IDEXX Laboratories Inc, Columbia, Mo.) prior to implantation. […]"}, "Sprague Dawley rats": {"system": "Sprague Dawley rats", "test": "28-day repeat dose oral toxicity and toxicokinetic study with 28-day recovery period", "type": "in vivo"}, "CYP2D6": {"target": "CYP2D6 (Homo sapiens, UniProt P10635)", "sequence (P10635 whole entry)": "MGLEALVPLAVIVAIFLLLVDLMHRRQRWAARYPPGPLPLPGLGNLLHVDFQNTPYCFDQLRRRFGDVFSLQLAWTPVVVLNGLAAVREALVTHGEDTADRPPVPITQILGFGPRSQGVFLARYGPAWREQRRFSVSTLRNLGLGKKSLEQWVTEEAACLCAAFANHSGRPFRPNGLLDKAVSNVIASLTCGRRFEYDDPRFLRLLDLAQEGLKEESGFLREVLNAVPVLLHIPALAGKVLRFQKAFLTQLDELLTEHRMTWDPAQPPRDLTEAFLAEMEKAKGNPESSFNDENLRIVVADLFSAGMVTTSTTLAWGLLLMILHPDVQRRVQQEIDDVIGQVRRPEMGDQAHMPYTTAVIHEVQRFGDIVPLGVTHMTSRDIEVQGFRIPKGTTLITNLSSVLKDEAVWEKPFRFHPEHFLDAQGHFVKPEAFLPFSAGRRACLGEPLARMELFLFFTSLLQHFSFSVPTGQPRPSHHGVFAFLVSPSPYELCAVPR", "test": "In vitro metabolism by CYP2D6", "type": "in vitro ADME"}, "Aqueous solubility": {"test": "Aqueous solubility", "type": "physicochemical"}, "syngeneic tumor": {"system": "syngeneic tumor", "test": "Re-challenge of cured tumor-bearing mice with the same syngeneic tumor", "type": "in vivo", "conditions": "tumor-bearing mice cured following treatment with Compound 1"}, "[2]": {"system": "female Sprague Dawley rats", "conditions": "female, Sprague Dawley, rat, in vivo"}, "[3]": {"conditions": "Compound 1 50 mg/kg PO BID Days 10-16 (7 days) in combination with anti-PD-1 200 μg IP BIW (Days 10, 13, 17, 20)"}, "[4]": {"conditions": "Compound 1 50 mg/kg PO BID Days 10-16 and Days 24-30 (interval schedule) in combination with anti-PD-1 200 μg IP BIW (Days 10, 13, 17, 20)"}, "[5]": {"conditions": "Compound 1 50 mg/kg PO BID Days 10-23 (14 days) in combination with anti-PD-1 200 μg IP BIW (Days 10, 13, 17, 20)"}, "[6]": {"conditions": "Compound 1 50 mg/kg PO BID Days 10-30 (21 days) in combination with anti-PD-1 200 μg IP BIW (Days 10, 13, 17, 20)"}, "[7]": {"conditions": "Compound 1 50 mg/kg PO BID Days 10-37 (28 days) in combination with anti-PD-1 200 μg IP BIW (Days 10, 13, 17, 20)"}, "[8]": {"conditions": "Compound 1 monotherapy, 50 mg/kg PO BID Days 10-37 (28 days)"}, "[9]": {"conditions": "oral QD 28 days at 30, 100 or 300/200 mg/kg"}}}
{"compound": "CC(C)n1cc(C(=O)Nc2ccc(Oc3ccnc4[nH]nc(N[C@H](C)CO)c34)c(F)c2)c(=O)n(-c2ccc(F)cc2)c1=O", "note": "[Compound 1, (R)—N-(3-fluoro-4-((3-((1-hydroxypropan-2-yl)amino)-1H-pyrazolo[3,4-b]pyridin-4-yl)oxy)phenyl)-3-(4-fluorophenyl)-1-isopropyl-2,4-dioxo-1,2,3,4-tetrahydropyrimidine-5-carboxamide]", "values": [{"measurement": "% TGI on Day 32", "setting": "[1]; [3]", "value": 96.6, "unit": "%"}, {"measurement": "Cures on Day 66", "setting": "[1]; [3]", "value": "6/8"}, {"measurement": "Median Survival (days)", "setting": "[1]; Compound 1 50 mg/kg PO BID Days 10-16 (7 days) in combination with anti-PD-1 200 μg IP BIW", "value": "not reached"}, {"measurement": "% TGI on Day 32", "setting": "[1]; [4]", "value": 96.2, "unit": "%"}, {"measurement": "Cures on Day 66", "setting": "[1]; [4]", "value": "4/8"}, {"measurement": "Median Survival (days)", "setting": "[1]; Compound 1 50 mg/kg PO BID Days 10-16 and Days 24-30 (interval schedule) in combination with anti-PD-1 200 μg IP BIW", "value": "not reached"}, {"measurement": "% TGI on Day 32", "setting": "[1]; [5]", "value": 97.1, "unit": "%"}, {"measurement": "Cures on Day 66", "setting": "[1]; [5]", "value": "3/8"}, {"measurement": "Median Survival", "setting": "[1]; [5]", "value": 66, "unit": "days"}, {"measurement": "% TGI on Day 32", "setting": "[1]; [6]", "value": 98.5, "unit": "%"}, {"measurement": "Cures on Day 66", "setting": "[1]; [6]", "value": "3/8"}, {"measurement": "Median Survival (days)", "setting": "[1]; Compound 1 50 mg/kg PO BID Days 10-30 (21 days) in combination with anti-PD-1 200 μg IP BIW", "value": "not reached"}, {"measurement": "% TGI on Day 32", "setting": "[1]; [7]", "value": 99.3, "unit": "%"}, {"measurement": "Cures on Day 66", "setting": "[1]; [7]", "value": "5/7"}, {"measurement": "Median Survival (days)", "setting": "[1]; Compound 1 50 mg/kg PO BID Days 10-37 (28 days) in combination with anti-PD-1 200 μg IP BIW", "value": "not reached"}, {"measurement": "% TGI on Day 32", "setting": "[1]; [8]", "value": 95.6, "unit": "%"}, {"measurement": "Cures on Day 66", "setting": "[1]; [8]", "value": "0/6"}, {"measurement": "Median Survival", "setting": "[1]; [8]", "value": 66, "unit": "days"}, {"measurement": "adversity of changes in the eyes and testes", "setting": "Sprague Dawley rats; oral QD 28 days", "value": "considered to be adverse"}, {"measurement": "dose with structural/functional changes in the eyes (outer retinal atrophy), female", "setting": "Sprague Dawley rats; [9]", "value": 30, "unit": "mg/kg"}, {"measurement": "dose with structural/functional changes in the eyes (outer retinal atrophy), males", "setting": "Sprague Dawley rats; [9]", "value": 100, "unit": "mg/kg"}, {"measurement": "reversibility of outer retinal atrophy", "setting": "Sprague Dawley rats; oral QD 28 days, 28-day recovery period", "value": "unrecoverable"}, {"measurement": "metabolizing enzyme in vitro", "setting": "CYP2D6", "value": "primarily metabolized by CYP3A4 and CYP2D6"}, {"measurement": "aqueous solubility", "setting": "Aqueous solubility", "value": "pH dependent"}, {"measurement": "response of cured mice to subsequent re-challenge with the same syngeneic tumor", "setting": "syngeneic tumor", "value": "resistant to subsequent re-challenge with the same syngeneic tumor"}, {"measurement": "therapeutic multiples compared to expected exposure at the starting dose of 25 mg QD", "setting": "[2]", "value": "39-78"}, {"measurement": "STD10 for 14 days once daily dose administration", "setting": "[2]; 14 days", "value": 100, "unit": "mg/kg"}]}
